Assay results as given in ChEMBL document CHEMBL1201862, “PubChem BioAssay data set” (2004).
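A five-concentration, 48-hour dose response in 96-well plates underlies each endpoint, interpolated linearly between surrounding concentrations. GI50 = concentration required for 50% inhibition of growth.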 The source made the active and inactive calls. Rule as the data show it: active = GI50 up to about 1.1 µM and inactive = higher.

Assays:
Test in all cases: NCI-60 cell line screen, 48 h
BT-549 = system: BT-549
CCRF-CEM = system: CCRF-CEM
786-0 = system: 786-0
UACC-62 = system: UACC-62
SNB-19 = system: SNB-19
MOLT-4 = system: MOLT-4
MDA-N = system: MDA-N
RXF 393 = system: RXF 393
DLD-1 = system: DLD-1
NCI-H460 = system: NCI-H460
SK-OV-3 = system: SK-OV-3
SW-620 = system: SW-620
M14 = system: M14
SN12C = system: SN12C
HOP-18 = system: HOP-18
SK-MEL-5 = system: SK-MEL-5
DMS-273 = system: DMS-273
K562 = system: K562
OVCAR-8 = system: OVCAR-8
SF-539 = system: SF-539
HOP-92 = system: HOP-92
U-251 = system: U-251
ACHN = system: ACHN
SNB-75 = system: SNB-75
HCT-15 = system: HCT-15
NCI-H226 = system: NCI-H226
M19-MEL = system: M19-MEL
MDA-MB-231 = system: MDA-MB-231
HOP-62 = system: HOP-62
HT-29 = system: HT-29
SF-268 = system: SF-268
HCT-116 = system: HCT-116
UO-31 = system: UO-31
MDA-MB-435 = system: MDA-MB-435
OVCAR-3 = system: OVCAR-3
IGROV-1 = system: IGROV-1
A498 = system: A498
MCF7 = system: MCF7
EKVX = system: EKVX
NCI-H522 = system: NCI-H522
KM12 = system: KM12
SK-MEL-28 = system: SK-MEL-28
NCI/ADR-RES = system: NCI/ADR-RES
HL-60 = system: HL-60
PC-3 = system: PC-3
SNB-78 = system: SNB-78
SR = system: SR
TK-10 = system: TK-10
SK-MEL-2 = system: SK-MEL-2
CAKI-1 = system: CAKI-1
KM-20L2 = system: KM-20L2
XF498 = system: XF498
OVCAR-5 = system: OVCAR-5
SF-295 = system: SF-295
LOX IMVI = system: LOX IMVI
COLO 205 = system: COLO 205
DMS-114 = system: DMS-114
UACC-257 = system: UACC-257
Malme-3M = system: Malme-3M
RPMI-8226 = system: RPMI-8226
DU-145 = system: DU-145
Hs-578T = system: Hs-578T
OVCAR-4 = system: OVCAR-4
NCI-H23 = system: NCI-H23
HCC 2998 = system: HCC 2998
A549 = system: A549
LXFL 529 = system: LXFL 529

**Q.** Which results are given for CN(C)c1ccc(/N=C2/C=CC(=C(C#N)C#N)c3ccccc32)cc1?
**A.** GI50 (BT-549): 828 nM (active); GI50 (CCRF-CEM): 94 nM (active); GI50 (786-0): 385 nM (active); GI50 (UACC-62): 386 nM (active); GI50 (SNB-19): 536 nM (active); GI50 (MOLT-4): 196 nM (active); GI50 (MDA-N): 36.5 nM (active); GI50 (RXF 393): 460 nM (active); GI50 (DLD-1): 294 nM (active); GI50 (NCI-H460): 332 nM (active); GI50 (SK-OV-3): 332 nM (active); GI50 (SW-620): 114 nM (active); GI50 (M14): 145 nM (active); GI50 (SN12C): 332 nM (active); GI50 (HOP-18): 1140 nM (inactive); GI50 (SK-MEL-5): 133 nM (active); GI50 (DMS-273): 303 nM (active); GI50 (K562): 72.3 nM (active); GI50 (OVCAR-8): 213 nM (active); GI50 (SF-539): 208 nM (active); GI50 (HOP-92): 70 nM (active); GI50 (U-251): 333 nM (active); GI50 (ACHN): 485 nM (active); GI50 (SNB-75): 363 nM (active); GI50 (HCT-15): 195 nM; GI50 (NCI-H226): 236 nM (active); GI50 (M19-MEL): 904 nM (active); GI50 (MDA-MB-231): 307 nM (active); GI50 (HOP-62): 468 nM (active); GI50 (HT-29): 177 nM (active); GI50 (SF-268): 380 nM (active); GI50 (HCT-116): 117 nM (active); GI50 (UO-31): 893 nM (active); GI50 (MDA-MB-435): 39.1 nM (active); GI50 (OVCAR-3): 118 nM (active); GI50 (IGROV-1): 222 nM (active); GI50 (A498): 392 nM (active); GI50 (MCF7): 178 nM (active); GI50 (EKVX): 955 nM (active); GI50 (NCI-H522): 55.5 nM (active); GI50 (KM12): 381 nM (active); GI50 (SK-MEL-28): 520 nM (active); GI50 (NCI/ADR-RES): 97.5 nM (active); GI50 (HL-60): 54.1 nM (active); GI50 (PC-3): 183 nM (active); GI50 (SNB-78): 479 nM (active); GI50 (SR): 34.5 nM (active); GI50 (TK-10): 1820 nM (inactive); GI50 (SK-MEL-2): 337 nM (active); GI50 (CAKI-1): 550 nM (active); GI50 (KM-20L2): 209 nM (active); GI50 (XF498): 261 nM (active); GI50 (OVCAR-5): 326 nM (active); GI50 (SF-295): 291 nM (active); GI50 (LOX IMVI): 282 nM (active); GI50 (COLO 205): 95.7 nM (active); GI50 (DMS-114): 234 nM (active); GI50 (UACC-257): 1490 nM (inactive); GI50 (Malme-3M): 625 nM (active); GI50 (RPMI-8226): 122 nM (active); GI50 (DU-145): 259 nM (active); GI50 (Hs-578T): 361 nM (active); GI50 (OVCAR-4): 906 nM (active); GI50 (NCI-H23): 259 nM (active); GI50 (HCC 2998): 244 nM (active); GI50 (A549): 436 nM (active)

**Q.** How did the GI50 (CCRF-CEM) turn out when OC12CCC3(O)c4ccccc4C3C1c1ccccc12 (centres undefined) was run?
**A.** Its GI50 is > 100000 nM (inactive).

**Q.** And the GI50 (786-0)?
**A.** The GI50 was > 100000 nM (inactive).

**Q.** What about the GI50 (UACC-62) of the same compound?
**A.** Its GI50 is > 100000 nM (inactive).

**Q.** And the GI50 (SNB-19)?
**A.** Its GI50 is > 100000 nM (inactive).

**Q.** And the GI50 (MOLT-4)?
**A.** Its GI50 is > 100000 nM (inactive).

**Q.** And the GI50 (RXF 393)?
**A.** Its GI50 is > 100000 nM (inactive).

**Q.** And the GI50 (NCI-H460)?
**A.** The GI50 was > 100000 nM (inactive).

**Q.** What about the GI50 (SK-OV-3) of the same compound?
**A.** The GI50 was > 100000 nM (inactive).

**Q.** What about the GI50 (SW-620) of the same compound?
**A.** The GI50 was > 100000 nM (inactive).

**Q.** And the GI50 (M14)?
**A.** The GI50 was > 100000 nM (inactive).

**Q.** And the GI50 (SN12C)?
**A.** The GI50 was > 100000 nM (inactive).

**Q.** And the GI50 (HOP-18)?
**A.** Its GI50 is > 100000 nM (inactive).

**Q.** What about the GI50 (SK-MEL-5) of the same compound?
**A.** The GI50 was > 100000 nM (inactive).

**Q.** And the GI50 (DMS-273)?
**A.** Its GI50 is > 100000 nM (inactive).

**Q.** And the GI50 (K562)?
**A.** Its GI50 is > 100000 nM (inactive).

**Q.** What about the GI50 (OVCAR-8) of the same compound?
**A.** The GI50 was > 100000 nM (inactive).

**Q.** And the GI50 (U-251)?
**A.** The GI50 was > 100000 nM (inactive).

**Q.** And the GI50 (ACHN)?
**A.** The GI50 was > 100000 nM (inactive).

**Q.** What about the GI50 (SNB-75) of the same compound?
**A.** Its GI50 is > 100000 nM (inactive).

**Q.** And the GI50 (HCT-15)?
**A.** Its GI50 is greater than 100000 nM.

**Q.** And the GI50 (NCI-H226)?
**A.** The GI50 was > 100000 nM (inactive).

**Q.** What about the GI50 (M19-MEL) of the same compound?
**A.** The GI50 was > 100000 nM (inactive).

**Q.** What about the GI50 (HOP-62) of the same compound?
**A.** Its GI50 is > 100000 nM (inactive).

**Q.** What about the GI50 (HT-29) of the same compound?
**A.** Its GI50 is > 100000 nM (inactive).

**Q.** And the GI50 (SF-268)?
**A.** Its GI50 is > 100000 nM (inactive).

**Q.** And the GI50 (HCT-116)?
**A.** The GI50 was > 100000 nM (inactive).

**Q.** And the GI50 (UO-31)?
**A.** Its GI50 is > 100000 nM (inactive).

**Q.** What about the GI50 (EKVX) of the same compound?
**A.** Its GI50 is > 100000 nM (inactive).

**Q.** What about the GI50 (NCI-H522) of the same compound?
**A.** The GI50 was > 100000 nM (inactive).

**Q.** And the GI50 (KM12)?
**A.** The GI50 was > 100000 nM (inactive).

**Q.** And the GI50 (SK-MEL-28)?
**A.** The GI50 was > 100000 nM (inactive).

**Q.** What about the GI50 (HL-60) of the same compound?
**A.** Its GI50 is > 100000 nM (inactive).

**Q.** What about the GI50 (LXFL 529) of the same compound?
**A.** Its GI50 is > 100000 nM (inactive).

**Q.** What about the GI50 (SNB-78) of the same compound?
**A.** Its GI50 is > 100000 nM (inactive).

**Q.** What about the GI50 (SR) of the same compound?
**A.** Its GI50 is > 100000 nM (inactive).

**Q.** What about the GI50 (TK-10) of the same compound?
**A.** Its GI50 is > 100000 nM (inactive).

**Q.** What about the GI50 (SK-MEL-2) of the same compound?
**A.** The GI50 was > 100000 nM (inactive).

**Q.** What about the GI50 (KM-20L2) of the same compound?
**A.** The GI50 was > 100000 nM (inactive).

**Q.** What about the GI50 (XF498) of the same compound?
**A.** Its GI50 is > 100000 nM (inactive).

**Q.** And the GI50 (SF-295)?
**A.** The GI50 was > 100000 nM (inactive).

**Q.** And the GI50 (LOX IMVI)?
**A.** Its GI50 is > 100000 nM (inactive).

**Q.** What about the GI50 (COLO 205) of the same compound?
**A.** Its GI50 is > 100000 nM (inactive).

**Q.** What about the GI50 (UACC-257) of the same compound?
**A.** Its GI50 is > 100000 nM (inactive).

**Q.** What about the GI50 (Malme-3M) of the same compound?
**A.** The GI50 was > 100000 nM (inactive).

**Q.** And the GI50 (RPMI-8226)?
**A.** The GI50 was > 100000 nM (inactive).

**Q.** What about the GI50 (OVCAR-4) of the same compound?
**A.** The GI50 was > 100000 nM (inactive).

**Q.** And the GI50 (NCI-H23)?
**A.** Its GI50 is > 100000 nM (inactive).

**Q.** And the GI50 (A549)?
**A.** The GI50 was > 100000 nM (inactive).
